Where a SMILES comes first, the peptide text is derived from it.
Legend:
[1] = system: mice; assay: General chronic toxicology study in mice; format: in vivo; conditions: duration ≥6 months, ICH S4 guidelines
Source text: The Fmoc polypeptide synthesis method is a conventional method used by a person skilled in the art to prepare a polypeptide. In the case that a person skilled in the art knows that the polypeptide to be prepared needs to comprise an amino acid sequence as shown in EMHKMEPCPMYRRHLG, in combination with the existing Fmoc polypeptide synthesis method, the polypeptide to be protected in the present application may be obtained.

[2] = system: human fibroblasts; format: cell-based; conditions: 48 h, 200 μg/mL
Method: The active polypeptide of the present application with a sequence of EMHKMEPCPMYRRHLG was serially diluted in a 96-well cell culture plate to 5, 10, 25, 50, 100, 200 μg/mL, with 5 duplicated wells per concentration. The above operations were all performed under sterile conditions.
For the passage of the cell lines isolated in Example 1, the cell culture medium was firstly poured out, and the cells were washed twice with 2 mL of PBS. The liquid was discarded, and 1 mL of 0.25% (mass fraction) trypsin solution was added for digestion for 3 min until the cells were completely detached. […] The cell solution was adjusted to a concentration of 5.0×10^5 cells/mL and cultured at 37° C. under 5% carbon dioxide and saturated humidity conditions. After 24 h of passaging, the cells were used for pharmacological activity assay. The above operations were all performed under sterile conditions.
The cells were inoculated into a 96-well cell culture plate, with 100 μL per well, and incubated at 37° C. under 5% carbon dioxide and saturated humidity conditions. […] The absorbance was determined at 570 nm by a microplate reader, with 630 nm as a reference wavelength. The results were recorded and the cell viability was calculated according to the following formula: cell viability=(absorbance A570 of the experimental group/absorbance A570 of the blank control group)×100%.

How did the “toxic side effects in general chronic toxicology study” value [1] turn out when `CSCC[C@H](NC(=O)[C@H](CCCCN)NC(=O)[C@H](Cc1c[nH]cn1)NC(=O)[C@H](CCSC)NC(=O)[C@@H](N)CCC(=O)O)C(=O)N[C@@H](CCC(=O)O)C(=O)N1CCC[C@H]1C(=O)N[C@@H](CS)C(=O)N1CCC[C@H]1C(=O)N[C@@H](CCSC)C(=O)N[C@@H](Cc1ccc(O)cc1)C(=O)N[C@@H](CCCNC(=N)N)C(=O)N[C@@H](CCCNC(=N)N)C(=O)N[C@@H](Cc1c[nH]cn1)C(=O)N[C@@H](CC(C)C)C(=O)NCC(=O)O` [active polypeptide, EMHKMEPCPMYRRHLG] (H-EMHKMEPCPMYRRHLG-OH) was run?
Its value is “no significant toxic side effects”.

And the cell viability [2]?
The cell viability was 265.3%±4.52.

Source: US20250041195A1, “COLLAGEN TYPE III COMPOSITION PREPARED FROM FIBROBLAST EXTRACELLULAR MATRIX” (SINO UNITED (BEIJING) BIOMEDICAL TECHNOLOGY CO., LTD., priority 2022, published 2025)
